From ChEMBL document CHEMBL1201862, “PubChem BioAssay data set” (2004) come the findings set out here.

Structures are written as SMILES. The source made the active and inactive calls. A value given as a limit tells only on which side of the number the result lay.

The target in one test is Large T antigen (Simian virus 40, UniProt P03070). It counts as functional, Betapolyomavirus macacae.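 Further: Confirmatory-stage PubChem screen for compounds that inhibit SV40 T antigen.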
The target of a further test is T1, ORF 73 (Human herpesvirus 8, UniProt O40947).
T1 sequence (O40947 whole entry): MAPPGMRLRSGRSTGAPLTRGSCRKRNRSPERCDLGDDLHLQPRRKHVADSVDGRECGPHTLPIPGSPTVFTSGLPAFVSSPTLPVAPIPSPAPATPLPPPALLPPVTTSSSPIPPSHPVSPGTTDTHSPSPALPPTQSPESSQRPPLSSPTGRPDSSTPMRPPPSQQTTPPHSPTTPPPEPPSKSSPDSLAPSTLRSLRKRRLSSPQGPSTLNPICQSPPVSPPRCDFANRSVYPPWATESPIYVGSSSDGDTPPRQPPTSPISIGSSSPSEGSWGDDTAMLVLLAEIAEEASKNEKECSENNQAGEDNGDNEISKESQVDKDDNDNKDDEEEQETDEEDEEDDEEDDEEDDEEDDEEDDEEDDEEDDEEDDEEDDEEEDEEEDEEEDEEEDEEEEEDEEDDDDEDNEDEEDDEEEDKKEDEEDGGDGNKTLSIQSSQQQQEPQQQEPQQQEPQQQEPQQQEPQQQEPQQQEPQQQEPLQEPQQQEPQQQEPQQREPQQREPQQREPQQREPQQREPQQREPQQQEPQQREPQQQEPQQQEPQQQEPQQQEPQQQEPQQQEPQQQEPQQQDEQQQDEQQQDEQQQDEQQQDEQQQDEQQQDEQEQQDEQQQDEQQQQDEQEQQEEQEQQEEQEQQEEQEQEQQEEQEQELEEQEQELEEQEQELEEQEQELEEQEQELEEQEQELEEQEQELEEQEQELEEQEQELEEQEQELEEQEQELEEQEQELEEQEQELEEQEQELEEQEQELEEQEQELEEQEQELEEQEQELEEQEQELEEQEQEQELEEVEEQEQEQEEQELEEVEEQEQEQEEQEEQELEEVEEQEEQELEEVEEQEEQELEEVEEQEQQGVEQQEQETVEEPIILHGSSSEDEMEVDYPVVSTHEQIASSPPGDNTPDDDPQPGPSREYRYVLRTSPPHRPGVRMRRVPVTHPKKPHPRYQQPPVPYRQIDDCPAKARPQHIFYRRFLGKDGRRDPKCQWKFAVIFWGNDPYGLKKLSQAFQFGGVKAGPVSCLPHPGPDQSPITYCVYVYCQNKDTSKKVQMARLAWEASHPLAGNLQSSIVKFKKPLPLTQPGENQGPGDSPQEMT
Briefly: KSHV LANA DNA-binding disruption – biochemical, fluorescence polarization, cherry-picked samples, dose response (AID 504725).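 Further: fluorescence polarization of a labeled DNA duplex reporting LANA DNA binding; potency is for inhibitors that block LANA binding to the DNA.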 Also on record: species or system Human gammaherpesvirus 8.

A further test concerns CHO. Put plainly: CHO cell viability loss, potency – luminescence, cytotoxicity control for TLR9-MyD88 binding inhibitor project, dose response (AID 588339).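 Further: CHO cells stably coexpressing TLR9 and MyD88 fusions from primary screen; compound exposure lasted 48 hours before viability readout.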 It counts as functional, cell-based, hamster. The following applies: Cricetulus griseus.
Test [1] deals with UDP-galactopyranose mutase (Mycobacterium tuberculosis, UniProt P9WIQ1). Briefly: Inhibitors of Mycobacterium tuberculosis UDP-galactopyranose mutase (UGM) enzyme Measured in Biochemical System Using Plate Reader - 2105-02_Inhibitor_Dose_CherryPick_Activity. [Related pubchem assays (depositor defined):AID504439].
UDP-galactopyranose mutase, sequence (P9WIQ1 whole entry): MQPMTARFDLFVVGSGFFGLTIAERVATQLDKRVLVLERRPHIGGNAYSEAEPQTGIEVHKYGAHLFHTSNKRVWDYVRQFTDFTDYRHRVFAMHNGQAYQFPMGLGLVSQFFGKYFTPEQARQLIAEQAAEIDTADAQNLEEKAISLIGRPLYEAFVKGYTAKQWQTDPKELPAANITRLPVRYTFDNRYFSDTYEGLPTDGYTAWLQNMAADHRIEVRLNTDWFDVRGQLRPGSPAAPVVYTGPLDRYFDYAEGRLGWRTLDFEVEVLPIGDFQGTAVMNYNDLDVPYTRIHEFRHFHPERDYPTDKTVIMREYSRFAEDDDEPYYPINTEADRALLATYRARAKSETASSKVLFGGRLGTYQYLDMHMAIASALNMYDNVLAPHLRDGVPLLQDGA
Test [2] addresses T2, Insulin-degrading enzyme (Homo sapiens, UniProt P14735).
T2 sequence (P14735 whole entry): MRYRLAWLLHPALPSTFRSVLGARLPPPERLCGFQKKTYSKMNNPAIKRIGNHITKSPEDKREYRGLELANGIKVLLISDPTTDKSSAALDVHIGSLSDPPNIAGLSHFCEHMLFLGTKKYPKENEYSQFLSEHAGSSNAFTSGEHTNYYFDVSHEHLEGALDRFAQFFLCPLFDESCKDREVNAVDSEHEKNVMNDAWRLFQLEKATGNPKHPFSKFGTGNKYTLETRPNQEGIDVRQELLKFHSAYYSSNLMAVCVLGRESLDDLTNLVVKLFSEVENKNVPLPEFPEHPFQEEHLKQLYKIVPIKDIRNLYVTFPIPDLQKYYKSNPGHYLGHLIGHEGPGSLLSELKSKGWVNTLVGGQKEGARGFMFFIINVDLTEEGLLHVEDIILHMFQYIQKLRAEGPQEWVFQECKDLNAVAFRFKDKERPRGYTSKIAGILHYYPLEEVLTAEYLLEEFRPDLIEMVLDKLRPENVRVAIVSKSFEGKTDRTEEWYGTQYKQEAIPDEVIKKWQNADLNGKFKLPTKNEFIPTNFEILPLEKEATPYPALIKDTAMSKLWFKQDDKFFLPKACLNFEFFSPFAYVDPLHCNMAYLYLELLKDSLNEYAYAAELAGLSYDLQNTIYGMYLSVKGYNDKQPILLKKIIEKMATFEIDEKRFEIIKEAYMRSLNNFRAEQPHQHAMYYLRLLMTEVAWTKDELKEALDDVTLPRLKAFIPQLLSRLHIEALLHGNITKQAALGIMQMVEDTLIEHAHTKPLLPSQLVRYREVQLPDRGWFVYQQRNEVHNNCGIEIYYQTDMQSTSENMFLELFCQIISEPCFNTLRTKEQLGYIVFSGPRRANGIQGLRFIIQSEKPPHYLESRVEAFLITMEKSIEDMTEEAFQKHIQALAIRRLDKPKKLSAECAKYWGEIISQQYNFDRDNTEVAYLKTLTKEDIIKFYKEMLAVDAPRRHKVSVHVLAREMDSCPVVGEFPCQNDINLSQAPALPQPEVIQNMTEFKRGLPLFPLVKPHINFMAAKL
Put plainly: recombinant IDE activation, cell-free – biochemical, fluorescence polarization, counter-screen for IDE activator project, dose response (AID 588681).

The target in a further test is Keap1/Nrf2 (Homo sapiens, UniProt Q14145). Briefly: disruptors of Keap1 binding to Nrf2 peptide – biochemical, fluorescence polarization, cherry-picked samples, dose response (AID 588683).
Keap1/Nrf2, sequence (Q16236 whole entry): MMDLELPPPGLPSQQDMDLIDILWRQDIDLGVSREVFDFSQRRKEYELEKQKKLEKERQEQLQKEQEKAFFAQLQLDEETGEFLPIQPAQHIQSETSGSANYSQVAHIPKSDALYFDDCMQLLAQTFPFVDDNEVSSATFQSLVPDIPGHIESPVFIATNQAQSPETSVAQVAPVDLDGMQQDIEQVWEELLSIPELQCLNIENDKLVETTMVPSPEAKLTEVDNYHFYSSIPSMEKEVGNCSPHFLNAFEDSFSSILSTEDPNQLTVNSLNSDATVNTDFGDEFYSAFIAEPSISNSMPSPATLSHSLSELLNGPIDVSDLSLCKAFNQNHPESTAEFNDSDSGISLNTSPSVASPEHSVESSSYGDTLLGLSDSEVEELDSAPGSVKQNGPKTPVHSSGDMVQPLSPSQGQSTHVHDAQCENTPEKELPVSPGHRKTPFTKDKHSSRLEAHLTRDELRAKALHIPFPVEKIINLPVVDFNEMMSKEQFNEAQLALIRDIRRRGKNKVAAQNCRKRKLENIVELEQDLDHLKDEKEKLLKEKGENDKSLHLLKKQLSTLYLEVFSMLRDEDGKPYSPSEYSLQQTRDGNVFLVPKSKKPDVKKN
Keap1/Nrf2, sequence (Q14145 whole entry): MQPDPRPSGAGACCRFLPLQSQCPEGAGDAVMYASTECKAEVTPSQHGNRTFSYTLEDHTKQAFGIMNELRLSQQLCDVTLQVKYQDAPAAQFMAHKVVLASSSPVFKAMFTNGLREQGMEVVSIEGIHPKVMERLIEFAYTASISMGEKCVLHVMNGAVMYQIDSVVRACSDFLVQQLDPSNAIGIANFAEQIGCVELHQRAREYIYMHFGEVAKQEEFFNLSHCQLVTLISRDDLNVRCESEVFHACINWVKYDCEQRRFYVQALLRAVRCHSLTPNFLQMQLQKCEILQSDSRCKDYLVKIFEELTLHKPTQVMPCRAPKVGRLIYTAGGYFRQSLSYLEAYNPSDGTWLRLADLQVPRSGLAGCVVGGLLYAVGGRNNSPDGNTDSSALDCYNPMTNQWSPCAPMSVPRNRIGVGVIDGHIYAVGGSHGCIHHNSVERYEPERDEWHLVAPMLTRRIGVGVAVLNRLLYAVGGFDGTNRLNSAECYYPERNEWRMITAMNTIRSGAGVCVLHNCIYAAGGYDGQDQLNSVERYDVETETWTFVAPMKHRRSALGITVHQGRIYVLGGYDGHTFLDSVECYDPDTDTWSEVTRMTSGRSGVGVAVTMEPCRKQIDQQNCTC
The next test has as its target Beta Lactamase (Pseudomonas aeruginosa, UniProt Q932Y6). Briefly: BLA reporter interference, concentration series – BLA reporter cells, FRET fluorescence, artefact control for TLR9-MyD88 binding inhibitor project, dose response (AID 588341).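 Further: cell based assay in CHO-K1 cells stably expressing beta-lactamase.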 The class given is cell-based.
Test [3] deals with T2, Insulin-degrading enzyme. Briefly: cellular IDE activation of Abeta substrate cleavage – fluorescence polarization, HEK cells, dose response (AID 588439). The class given is functional, cell-based.
Test [4] concerns HEK293. Briefly: membrane integrity loss in HEK cells – cell-based, fluorescence, cytotoxicity control for IDE activator project, dose response (AID 588440).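 Further: cytotoxicity by LDH release measuring loss of membrane integrity.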 It counts as functional. To be noted: Homo sapiens.
Test [5] concerns the target Dual specificity tyrosine-phosphorylation-regulated kinase 1A (Rattus norvegicus, UniProt Q63470). It counts as biochemical, Homo sapiens.
The test system of test [6] is HEK293. Put plainly: optical interference in Abeta FP readout, dose response, artefact control for IDE activator project, biochemical, fluorescence polarization (AID 588442). The class given is functional, cell-based. The following applies: Homo sapiens.
Test [7] concerns the target T3, Rac GTPase-activating protein 1 (Homo sapiens, UniProt Q9H0H5).
T3 sequence (Q9H0H5 whole entry): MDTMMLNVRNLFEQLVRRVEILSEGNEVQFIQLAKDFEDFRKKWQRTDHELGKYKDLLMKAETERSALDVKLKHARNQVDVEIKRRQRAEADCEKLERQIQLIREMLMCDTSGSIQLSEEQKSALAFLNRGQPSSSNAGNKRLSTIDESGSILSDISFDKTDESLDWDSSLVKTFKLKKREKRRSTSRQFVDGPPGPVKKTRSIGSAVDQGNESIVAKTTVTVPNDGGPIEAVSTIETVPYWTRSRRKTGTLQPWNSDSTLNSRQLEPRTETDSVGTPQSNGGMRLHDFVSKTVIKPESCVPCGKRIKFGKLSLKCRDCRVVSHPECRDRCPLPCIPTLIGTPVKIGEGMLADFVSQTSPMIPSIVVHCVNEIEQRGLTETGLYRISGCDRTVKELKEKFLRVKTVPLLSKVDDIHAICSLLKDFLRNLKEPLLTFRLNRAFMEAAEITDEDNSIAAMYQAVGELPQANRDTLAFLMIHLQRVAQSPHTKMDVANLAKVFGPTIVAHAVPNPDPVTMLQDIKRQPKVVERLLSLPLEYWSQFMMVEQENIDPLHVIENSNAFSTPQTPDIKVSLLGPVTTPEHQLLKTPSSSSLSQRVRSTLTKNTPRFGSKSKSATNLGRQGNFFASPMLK
Put plainly: blockers of MgcRacGAP-driven Rac1 GTP hydrolysis – biochemical, ADP Hunter fluorescence, primary and confirmatory, confirmation (AID 624330). It counts as functional.

For the next test, the target named is Melanocortin receptor 4 (Homo sapiens, UniProt P32245). Briefly: inhibitors of MC4R cAMP signaling – cell-based, TR-FRET, biased antagonists, dose response (AID 602298).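 Further: antagonist potency against agonist-stimulated cAMP production.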 It counts as functional.
Melanocortin receptor 4, sequence (P32245 whole entry): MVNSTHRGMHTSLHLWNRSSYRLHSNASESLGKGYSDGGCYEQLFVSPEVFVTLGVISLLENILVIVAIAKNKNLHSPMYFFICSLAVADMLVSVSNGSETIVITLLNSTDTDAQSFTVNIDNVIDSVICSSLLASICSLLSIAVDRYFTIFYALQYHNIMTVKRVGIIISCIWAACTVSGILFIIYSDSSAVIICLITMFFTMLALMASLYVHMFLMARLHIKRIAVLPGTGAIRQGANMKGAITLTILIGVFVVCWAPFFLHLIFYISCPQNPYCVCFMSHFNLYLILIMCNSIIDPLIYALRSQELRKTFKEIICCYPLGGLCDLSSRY
Test [8] in a line: cAMP pathway inhibition in counterscreen cell line – TR-FRET cAMP detection, counter-screen for MC4R biased antagonist project, dose response (AID 602305).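 Further: U2OS cells stimulated with forskolin near its EC80 as the cAMP inducer; potency is for inhibition of forskolin-stimulated cAMP signaling.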 It counts as functional, cell-based.
Test [9] in a line: NIH-3T3 fibroblast cytotoxicity, dose response, cytotoxicity control, cell-based, fluorescence, Alamar Blue, secondary assay (AID 2327).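 Further: NIH-3T3 mouse fibroblasts cultured with fluconazole at 8 µg/mL.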 The class given is functional.
Test [10] in a line: fluconazole-exposed Candida albicans growth modulators – fluorescence, retest, confirmation (AID 2467). The class given is functional, cell-based.
Test [11] deals with Serine/threonine-protein phosphatase (Candida dubliniensis (strain CD36 / CBS 7987 / NCPF 3949 / NRRLY-17841) (Yeast), UniProt B9W6M3). Briefly: blockers of CaCl2-induced CDRE-lacZ signaling – S. cerevisiae, luminescence, secondary, dose response (AID 2388).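 Further: yeast reporter cells carrying a calcineurin-responsive lacZ construct stimulated with calcium chloride; luminescent beta-galactosidase reporter signal in whole cells rather than isolated phosphatase activity; potency for inhibition where a drop in reporter signal means calcineurin blockade.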 It counts as functional, cell-based.
Serine/threonine-protein phosphatase, sequence (B9W6M3 whole entry): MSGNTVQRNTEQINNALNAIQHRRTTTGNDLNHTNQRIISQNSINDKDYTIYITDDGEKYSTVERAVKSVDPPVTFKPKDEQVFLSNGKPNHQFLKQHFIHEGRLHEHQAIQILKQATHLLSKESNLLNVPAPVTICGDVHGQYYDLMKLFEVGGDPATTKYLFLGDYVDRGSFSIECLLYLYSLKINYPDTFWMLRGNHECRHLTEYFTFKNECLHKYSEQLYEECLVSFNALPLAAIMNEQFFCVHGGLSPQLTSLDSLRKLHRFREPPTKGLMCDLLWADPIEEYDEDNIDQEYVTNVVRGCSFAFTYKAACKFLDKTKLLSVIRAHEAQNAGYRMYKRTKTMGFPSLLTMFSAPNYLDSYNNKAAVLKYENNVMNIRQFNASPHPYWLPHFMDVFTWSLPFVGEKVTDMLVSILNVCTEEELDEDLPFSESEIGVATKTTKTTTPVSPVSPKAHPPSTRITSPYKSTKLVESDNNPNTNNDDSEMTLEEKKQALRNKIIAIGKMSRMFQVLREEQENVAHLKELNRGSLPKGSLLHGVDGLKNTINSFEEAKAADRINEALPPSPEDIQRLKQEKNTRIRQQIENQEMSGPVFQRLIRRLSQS
Test [12] has as its target ATP-dependent molecular chaperone HSP82 (Candida albicans (strain WO-1) (Yeast), UniProt C4YTQ8). Put plainly: steroid-induced GRE reporter decrease in yeast – S. cerevisiae, luminescence, Hsp90 inhibitor project, dose response (AID 2400).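 Further: beta-galactosidase luminescence from glucocorticoid response element reporter as proxy for Hsp90 function; inhibitor potency where signal loss means Hsp90 inhibition.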 It counts as functional, cell-based.
Test [13] is described as follows: HEK-293T cell viability reduction – luminescence, B-cell screen hits, cytotoxicity control for BCR NF-kB inhibitor project, dose response (AID 489021).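 Further: HEK-293T cells carrying an NF-kB luciferase reporter; cells exposed to compound for about 14 hours before viability readout.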 The class given is functional, cell-based.
The test system of test [14] is HEK293. Put plainly: EBV LMP1 TES2 canonical NF-kB signalling blockers – cell-based, HEK293, luciferase, cherry-pick, dose response (AID 588343). To be noted: Homo sapiens. It counts as functional.
Test [15] concerns the target Latent membrane protein 1 (Human herpesvirus 4 (strain B95-8), UniProt P03230). Briefly: LMP1 TES1 pathway selectivity over dsRED control – imaging, HEK293T, dual-color eGFP/dsRED, cherry-picks, selectivity assay for LMP1 NF-kB inhibitor project, dose response (AID 588398). It counts as functional, cell-based.
For the next test, the system named is Vero. Put plainly: cells. It counts as functional. The following applies: Chlorocebus sabaeus.
Test [16] is described as follows: blockers of CAL PDZ–TMR peptide complex – biochemical, fluorescence polarization, untagged CAL PDZ, cherry-pick, set 2, dose response (AID 602254). It counts as functional.

Latent membrane protein 1, sequence (P03230 whole entry): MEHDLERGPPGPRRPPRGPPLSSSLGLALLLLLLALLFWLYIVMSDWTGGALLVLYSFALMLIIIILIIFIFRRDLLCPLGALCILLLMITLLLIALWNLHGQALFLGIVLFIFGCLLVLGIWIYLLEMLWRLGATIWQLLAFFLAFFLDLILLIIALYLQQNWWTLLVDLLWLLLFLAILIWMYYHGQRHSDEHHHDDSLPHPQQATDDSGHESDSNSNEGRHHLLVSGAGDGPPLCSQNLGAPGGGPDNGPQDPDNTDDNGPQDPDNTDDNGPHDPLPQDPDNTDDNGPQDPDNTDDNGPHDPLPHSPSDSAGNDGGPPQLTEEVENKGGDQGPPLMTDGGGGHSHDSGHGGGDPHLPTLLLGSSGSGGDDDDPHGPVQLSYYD
ATP-dependent molecular chaperone HSP82, sequence (C4YTQ8 whole entry): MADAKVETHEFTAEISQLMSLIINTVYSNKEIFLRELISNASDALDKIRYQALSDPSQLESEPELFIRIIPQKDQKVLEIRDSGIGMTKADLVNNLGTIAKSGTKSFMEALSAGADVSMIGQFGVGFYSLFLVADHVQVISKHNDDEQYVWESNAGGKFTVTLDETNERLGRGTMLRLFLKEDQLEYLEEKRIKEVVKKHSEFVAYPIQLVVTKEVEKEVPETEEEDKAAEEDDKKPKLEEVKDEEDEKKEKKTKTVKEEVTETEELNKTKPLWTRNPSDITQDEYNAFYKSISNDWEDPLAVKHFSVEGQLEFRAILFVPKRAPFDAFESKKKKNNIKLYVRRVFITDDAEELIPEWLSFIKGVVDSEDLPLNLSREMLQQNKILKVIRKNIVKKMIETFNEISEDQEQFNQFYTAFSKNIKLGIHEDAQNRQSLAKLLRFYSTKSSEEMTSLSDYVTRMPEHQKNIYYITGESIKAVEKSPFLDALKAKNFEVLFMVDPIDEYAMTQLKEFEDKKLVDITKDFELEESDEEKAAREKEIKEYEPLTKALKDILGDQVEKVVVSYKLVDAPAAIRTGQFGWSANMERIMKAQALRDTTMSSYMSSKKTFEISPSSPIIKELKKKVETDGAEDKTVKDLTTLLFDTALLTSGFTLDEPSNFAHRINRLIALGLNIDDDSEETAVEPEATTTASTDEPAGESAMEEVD
Large T antigen, sequence (P03070 whole entry): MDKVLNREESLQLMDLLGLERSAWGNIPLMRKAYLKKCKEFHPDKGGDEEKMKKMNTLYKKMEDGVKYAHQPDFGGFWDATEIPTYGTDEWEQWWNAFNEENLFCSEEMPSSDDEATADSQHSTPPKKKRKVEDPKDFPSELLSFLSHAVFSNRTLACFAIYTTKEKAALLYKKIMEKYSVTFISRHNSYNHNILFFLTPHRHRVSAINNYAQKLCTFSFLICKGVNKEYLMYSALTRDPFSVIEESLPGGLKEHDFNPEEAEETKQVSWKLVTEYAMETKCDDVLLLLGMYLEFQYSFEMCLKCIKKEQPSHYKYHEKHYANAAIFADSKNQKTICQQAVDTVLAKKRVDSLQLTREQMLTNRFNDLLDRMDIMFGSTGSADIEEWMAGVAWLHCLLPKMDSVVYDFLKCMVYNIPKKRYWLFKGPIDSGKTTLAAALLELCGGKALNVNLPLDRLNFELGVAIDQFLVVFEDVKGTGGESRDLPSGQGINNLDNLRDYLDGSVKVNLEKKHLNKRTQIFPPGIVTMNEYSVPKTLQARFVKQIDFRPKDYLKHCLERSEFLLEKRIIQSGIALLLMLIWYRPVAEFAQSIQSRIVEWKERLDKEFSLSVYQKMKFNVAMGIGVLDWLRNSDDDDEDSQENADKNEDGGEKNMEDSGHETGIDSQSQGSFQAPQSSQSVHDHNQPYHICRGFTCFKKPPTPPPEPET
Beta Lactamase, sequence (Q932Y6 whole entry): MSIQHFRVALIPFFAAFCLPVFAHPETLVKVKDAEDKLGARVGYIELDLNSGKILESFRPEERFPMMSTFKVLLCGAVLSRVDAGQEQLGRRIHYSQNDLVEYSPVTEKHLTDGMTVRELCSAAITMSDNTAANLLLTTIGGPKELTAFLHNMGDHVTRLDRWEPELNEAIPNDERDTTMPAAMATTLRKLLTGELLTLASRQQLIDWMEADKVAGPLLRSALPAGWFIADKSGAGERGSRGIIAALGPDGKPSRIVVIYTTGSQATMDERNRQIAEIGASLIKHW

As to `CC1=NCCc2c1[nH]c1cc(O)ccc21`, the IC50 at Large T antigen was 8.18 µM (active); in the test with CHO it was > 49.8 µM (inactive); on Beta Lactamase, 7.96 µM (active); in the test on HEK293 [4], > 89.1 µM (inactive); in test [7], 8.73 µM (active). The AC50 on ORF 73 is 1.76 µM (active); in test [1] it was 5.89 µM (active); at Keap1/Nrf2, 4.36 µM (active); in test [5] it was 3.13 µM (active). For the same molecule, the EC50 at Insulin-degrading enzyme [2], at Insulin-degrading enzyme [3] and in the test with HEK293 [6] was > 54.6 µM (inactive) each time.
Take `CSCCC(NC(=O)c1cccc(C)c1)C(=O)OCN1C(=O)c2ccccc2C1=O` (stereo not given): the figures for the IC50 (on Melanocortin receptor 4; in test [8]) were > 21.5 µM (inactive) and > 64.6 µM (inactive), respectively.
As for `COc1ccc(N(CC(=O)Nc2ccccc2C(N)=O)S(=O)(=O)c2ccc(C)c([N+](=O)[O-])c2)cc1`, the EC50 in test [9] is > 150 µM (inactive); in [10], 0.095 µM (active); in test [11], > 180 µM (inactive); in [12], > 160 µM (inactive).
As for `COc1cc(-c2[nH]c(C(=O)NCC3CCCO3)cc3c4ccccc4nc2-3)cc(OC)c1OC` (stereo not given), the IC50 in test [13] is 51.8 µM (inactive). For the same molecule, the values for the concentration at half-maximal activity (AC50) (in the test on HEK293 [14]; in test [15]) were 37.8 µM (active) and 44.3 µM (active), respectively.
As to `O=C1/C(=C/c2ccncc2)SC(=S)N1Cc1ccccc1`, the AC50 with HEK293 [14] was 0.678 µM (active); in test [15], 30.1 µM (active). Further, the 50% cytotoxic concentration (CC50) with Vero is > 25 µM (active).
As for `COCCSc1nnc(NC(=O)Cc2ccc(OC)cc2)s1`, the AC50 in test [16] was 101 µM (active).
